Assay results from paper PMC6025042, “HSQC-TOCSY Fingerprinting-Directed Discovery of Antiplasmodial Polyketides from the Marine Ascidian-Derived Streptomyces sp. (USC-16018)” (Marine Drugs, 2018).
Read-outs that look alike come from different tables or passages of the source. Blank lines part the entries; values can stand above or below the molecule they belong to.

Assays:
[1] = system: Plasmodium yoelii; conditions: cited from earlier work; for doses needed to clear the animals from the parasites: P. yoelii infected mice
[2] = system: HEK-293 Cells; experiment: cells; format: cell-based; conditions: for inhibition at 40 µM: read-out: % Inhibition at 40 µM, HEK-293 Cells; for IC50: value in brackets
Procedure: Human Embryonic Kidney cells (HEK293) were maintained in the Dulbecco’s Modified Eagle Medium (DMEM) medium supplemented with 10% FBS. The HEK293 cells were exposed to the compounds in TC-treated 384-wells plates (Falcon, Durham, NC, USA). […] After an additional 5–6 h incubation at standard conditions, the total fluorescence (excitation/emission: 530 nm/595 nm) was measured using the Envision plate reader (PerkinElmer, Waltham, MA, USA).
(§1) The raw data were normalized using the in-plate positive and negative controls to obtain the normalized % inhibition data, which was then used to calculate the IC50 values through a 4-parameter logistic curve fitting in the GraphPad Prism (Version 6.0, La Jolla, CA, USA). The experiments were carried out in two independent biological replicates, each consisting of two technical replicates.

[3] = system: P. falciparum 3D7; experiment: antiplasmodial imaging assay, P. falciparum 3D7; format: cell-based, Plasmodium falciparum; conditions: for inhibition at 40 µM / % Inhibition at 40 µM, P. falciparum 3D7: chloroquine sensitive strain; for IC50: read-out: IC50, P. falciparum 3D7
Procedure: (§2) The parasites were subjected to two rounds of sorbitol synchronization before undergoing compound treatment. The ring stage parasites were exposed to the experimental compounds in 384-wells imaging microplates (PerkinElmer CellCarrier, Waltham, MA, USA), as previously described in Reference. The plates were incubated for 72h at 37 °C, 90% N2, 5% CO2, 5% O2, then the parasites were stained with 2-(4-amidinophenyl)-1H–indole-6-carboxamidine (DAPI), and imaged using an Opera QEHS micro-plate confocal imaging system (PerkinElmer, Waltham, MA, USA). The images were analysed as previously described in Reference.
as §1

[4] = system: P. falciparum Dd2; experiment: antiplasmodial imaging assay, P. falciparum Dd2; format: cell-based, Plasmodium falciparum; conditions: for inhibition at 40 µM / % Inhibition at 40 µM, P. falciparum Dd2: chloroquine- and pyrimethamine-resistant strain; for IC50: read-out: IC50, P. falciparum Dd2
Procedure: as §2, §1

[5] = system: chloroquine-sensitive and chloroquine-resistant Plasmodium falciparum strains; set-up: method as in PMID 14514358; conditions: chloroquine-sensitive and chloroquine-resistant strains equally; read-out: IC50, growth of P. falciparum; cited from earlier work
[6] = set-up: method as in PMID 21454186; conditions: cited from earlier work
[7] = system: K1 strain; set-up: method as in PMID 27554496; conditions: read-out: IC50 against the K1 strain; cited from earlier work
[8] = Homo sapiens, HEK293, 40 µM, 72 h
[9] = Plasmodium falciparum, 3D7, 40 µM, 72 h, read-out: % Inhibition at 40 µM, P. falciparum 3D7
[10] = Plasmodium falciparum, 3D7, 72 h, value in brackets
[11] = Plasmodium falciparum, DD2, 40 µM, 72 h, read-out: % Inhibition at 40 µM, P. falciparum Dd2
[12] = Plasmodium falciparum, DD2, 72 h, value in brackets
[13] = Plasmodium falciparum, 3D7, 72 h, read-out: % Inhibition at 40 µM, P. falciparum 3D7, 40 µM, 72 h
[14] = Plasmodium falciparum, DD2, 72 h, read-out: % Inhibition at 40 µM, P. falciparum Dd2, 40 µM, 72 h
[15] = 40 µM, 72 h, listed as Herbimycin G (1)
[16] = 40 µM, 72 h, listed as Elaiophylin (2)
[17] = 72 h, value in brackets, listed as Elaiophylin (2)

Molecule: C=CCNC1=C2C[C@@H](C)C[C@H](OC)[C@H](O)[C@@H](C)/C=C(\C)[C@H](OC(N)=O)[C@@H](OC)/C=C\C=C(/C)C(=O)NC(=CC1=O)C2=O [17-AAG, 17-N-allylamino-17-demethoxygeldanamycin]
doses needed to clear the animals from the parasites [1]: a second dose of 17-AAG was needed
efficacy against Plasmodium yoelii in mouse models ([1]; intra-peritoneal, doses of 7.2 mg/kg): effective against Plasmodium yoelii in mouse models
time to complete clearance of parasitemia after reinfection ([1]; treated mice reinfected with P. yoelii): 9 days

IC50 [3, 10]: 0.9 nM
IC50 [4, 12]: 1.3 nM
Molecule: C[C@H]1[C@H](OC(=O)CCC(=O)O)O[C@@H]2O[C@@]3(C)CC[C@H]4[C@H](C)CC[C@@H]1[C@@]24OO3 [Artesunate]
inhibition at 40 µM [2, 8]: 50.6%
inhibition at 40 µM [3, 9]: 99.6%
inhibition at 40 µM [4, 11]: 98.4%

Molecule: CCN(CC)CCCC(C)Nc1ccnc2cc(Cl)ccc12 (stereo not shown) [Chloroquine]
doses needed to clear the animals from the parasites [1]: a single dose of chloroquine was sufficient to fully clear the animals from the parasites
inhibition at 40 µM ([2]; Homo sapiens, HEK293, 72 h): 40.9%
inhibition at 40 µM [3, 13]: 98.8%
IC50 ([3]; Plasmodium falciparum, 3D7, 72 h): 10 nM
inhibition at 40 µM [4, 14]: 96.5%
IC50 ([4]; Plasmodium falciparum, DD2, 72 h): 87.9 nM

IC50 [3, 10]: 0.4 nM
IC50 [4, 12]: 0.6 nM
Molecule: C[C@H]1[C@@H](O)O[C@@H]2O[C@@]3(C)CC[C@H]4[C@H](C)CC[C@@H]1[C@@]24OO3 [Dihydroartemisinin]
inhibition at 40 µM [2, 8]: 37.9%
inhibition at 40 µM [3, 9]: 99.9%
inhibition at 40 µM [4, 11]: 98%

Molecule: COC1=C2C[C@@H](C)C[C@H](OC)[C@H](O)[C@@H](C)/C=C(\C)[C@H](OC(N)=O)[C@@H](OC)/C=C\C=C(/C)C(=O)NC(=CC1=O)C2=O [Geld, geldanamycin]
IC50 [5]: 20 nM
water solubility (in words) [6]: low water solubility

IC50 [3, 10]: 149 nM
IC50 [4, 12]: 114 nM
Molecule: COc1ccc(C[C@H](N)C(=O)N[C@H]2[C@@H](O)[C@H](n3cnc4c(N(C)C)ncnc43)O[C@@H]2CO)cc1 [Puromycin]
inhibition at 40 µM [2, 8]: 103%
IC50 ([2]; Homo sapiens, HEK293, 72 h): 1410 nM
inhibition at 40 µM [3, 9]: 99%
inhibition at 40 µM [4, 11]: 99.1%

IC50 [3, 10]: 4.7 nM
Molecule: CCc1nc(N)nc(N)c1-c1ccc(Cl)cc1 [Pyrimethamine]
inhibition at 40 µM [2, 8]: 68.4%
inhibition at 40 µM [3, 9]: 98.7%
inhibition at 40 µM [4, 11]: 23.2%

IC50 [3, 10]: 7.4 nM
IC50 [4, 12]: 8.3 nM
Molecule: COc1ccc2nc3cc(Cl)ccc3c(Nc3cc(CN4CCCC4)c(O)c(CN4CCCC4)c3)c2n1 [Pyronaridine]
inhibition at 40 µM [2, 8]: 98.7%
IC50 ([2]; Homo sapiens, HEK293, 72 h): 2830 nM
inhibition at 40 µM [3, 9]: 99.9%
inhibition at 40 µM [4, 11]: 97.8%

Molecule: CO[C@H]1[C@@H](OC)C[C@H](C)[C@@H](OC)C2=C[C@@H](O)C[C@@H](NC(=O)/C(C)=C/C=C\[C@H](OC)[C@@H](OC(N)=O)/C(C)=C/[C@@H]1C)C2=O [compound 1, herbimycin G]
% Inhibition at 40 µM, HEK-293 Cells ([2]; 40 µM, 72 h): no effect
cytotoxicity (in words) ([2]; HEK293): no cytotoxicity
% Inhibition at 40 µM, P. falciparum 3D7 ([3]; 40 µM, 72 h): > 75%
% Inhibition at 40 µM, P. falciparum 3D7 [3, 15]: 77.2%
antiplasmodial activity (in words) ([3]; 3D7 and Dd2 strains): weak antiplasmodial activity
inhibition at 40 µM [3, 13]: 77%
% Inhibition at 40 µM, P. falciparum Dd2 [4, 15]: 81.7%
inhibition at 40 µM [4, 14]: > 75%

Molecule: CC(C)C[C@@H]1NC(=O)[C@@H]2CCCN2C1=O [compound 3, Cyclo-L-Pro-L-Leu]
% Inhibition at 40 µM, HEK-293 Cells ([2]; 40 µM, 72 h): no effect
inhibition at 40 µM [3, 9]: 45.9%
inhibition at 40 µM [4, 11]: 39%

Molecule: O=C1N[C@@H](Cc2ccccc2)C(=O)N2CCC[C@@H]12 [compound 4, Cyclo-L-Pro-L-Phe]
% Inhibition at 40 µM, HEK-293 Cells ([2]; 40 µM, 72 h): no effect
% Inhibition at 40 µM, P. falciparum 3D7 ([3]; 40 µM, 72 h): no effect
% Inhibition at 40 µM, P. falciparum Dd2 ([4]; 40 µM, 72 h): no effect

Molecule: CC(C)[C@@H]1NC(=O)[C@@H]2CCCN2C1=O [compound 5, Cyclo-L-Pro-L-Val]
% Inhibition at 40 µM, HEK-293 Cells ([2]; 40 µM, 72 h): no effect
% Inhibition at 40 µM, P. falciparum 3D7 ([3]; 40 µM, 72 h): no effect
% Inhibition at 40 µM, P. falciparum Dd2 ([4]; 40 µM, 72 h): no effect

Molecule: O=C1N[C@@H](Cc2ccc(O)cc2)C(=O)N2CCC[C@@H]12 [compound 6, Cyclo-L-Pro-L-Tyr]
% Inhibition at 40 µM, HEK-293 Cells ([2]; 40 µM, 72 h): no effect
% Inhibition at 40 µM, P. falciparum 3D7 ([3]; 40 µM, 72 h): no effect
% Inhibition at 40 µM, P. falciparum Dd2 ([4]; 40 µM, 72 h): no effect

Molecule: elaiophylin [compound 2]
IC50 [7]: 214 nM
% Inhibition at 40 µM, HEK-293 Cells ([2]; 40 µM, 72 h): 101.9%
IC50 ([2]; 72 h): 1440 nM
cytotoxicity (in words) ([2]; HEK293): highly cytotoxic
% Inhibition at 40 µM, P. falciparum 3D7 ([3]; 40 µM, 72 h): > 75%
% Inhibition at 40 µM, P. falciparum 3D7 [3, 16]: 96.6%
IC50 [3, 17]: 778 nM
% Inhibition at 40 µM, P. falciparum Dd2 ([4]; 40 µM, 72 h): > 75%
% Inhibition at 40 µM, P. falciparum Dd2 [4, 16]: 86.1%
IC50 [4, 17]: 598 nM
